Series [1] can be described thus: Conversion of crystalline forms of atrasentan hydrochloride to Form 2 in representative solvents at 25° C. Format: physicochemical. More on the design: key: 1, 2 and 3 mean Atrasentan Hydrochloride Crystalline Forms 1, 2 and 3, respectively.; 1, 2 and 3 mean Atrasentan Hydrochloride Crystalline Forms 1, 2 and 3, respectively.; 1, 2 and 3 mean Atrasentan Hydrochloride Crystalline Forms 1, 2 and 3, respectively. As for the experimental part: Examples of representative solvents that are useful for converting a particular crystalline form of atrasentan hydrochloride to Atrasentan Hydrochloride Crystalline Form 2 having substantial crystalline purity at 25° C. are shown in TABLE 2.

Series [2] in a line: Solubility of Atrasentan Hydrochloride Crystalline Forms in 1,4-dioxane. Format: physicochemical. Particulars: 1,4-dioxane at 25° C. (n=3). How it is done:
The solubility (in mg/mL) of Atrasentan Hydrochloride Crystalline Forms 1, 2 and 3 in 1,4-dioxane at 25° C.

Molecules are shown by their SMILES. Converted amounts (≈) assume the structure as drawn. Counter-ions that a name gives are not always drawn.

With `CCCCN(CCCC)C(=O)CN1C[C@H](c2ccc3c(c2)OCO3)[C@@H](C(=O)O)[C@@H]1c1ccc(OC)cc1` [atrasentan hydrochloride, (2R,3R,4S)-(+)-2-(4-methoxyphenyl)-4-(1,3-benzodioxol-5-yl)-1-(N,N-di(n-butyl)aminocarbonylmethyl)pyrrolidine-3-carboxylic acid], the crystalline form present in series [1] (0.1M HCl, week 1, 25° C.) is 1; in series [1] (0.1M HCl, week 2, 25° C.), 1; in series [1] (0.1M HCl, week 4, 25° C.) it was 1; in series [1] (0.1M HCl, week 9, 25° C.) it was 2; in series [1] (0.1M HCl, week 16, 25° C.), 2; in series [1] (IPA (isopropyl alcohol), week 1, 25° C.), 1. The crystalline form present in series [1] (IPA (isopropyl alcohol), week 2, 25° C.) stood at 1; in series [1] (IPA (isopropyl alcohol), week 4, 25° C.) it was 2; in series [1] (IPA (isopropyl alcohol), week 9, 25° C.), 2; in series [1] (IPA (isopropyl alcohol), week 16, 25° C.), 2; in series [1] (PEG 400 (polyethylene glycol), week 1, 25° C.), 1; in series [1] (PEG 400 (polyethylene glycol), week 2, 25° C.), 1. The crystalline form present was 1 in series [1] (PEG 400 (polyethylene glycol), week 4, 25° C.); 1 in series [1] (PEG 400 (polyethylene glycol), week 9, 25° C.); 2 in series [1] (PEG 400 (polyethylene glycol), week 16, 25° C.); 2 in series [1] (acetone, week 1, 25° C.); 2 in series [1] (acetone, week 2, 25° C.); 2 in series [1] (acetone, week 4, 25° C.). Also, the crystalline form present in series [1] (acetone, week 9, 25° C.) came to 2; in series [1] (acetone, week 16, 25° C.) it was 2; in series [1] (ethanol, week 1, 25° C.), 2; in series [1] (ethanol, week 2, 25° C.), 2; in series [1] (ethanol, week 4, 25° C.), 2; in series [1] (ethanol, week 9, 25° C.), 2. The crystalline form present in series [1] (ethanol, week 16, 25° C.) is on record as 2; in series [1] (ethyl acetate, week 1, 25° C.) it was 1; in series [1] (ethyl acetate, week 2, 25° C.), 1; in series [1] (ethyl acetate, week 4, 25° C.) it was 1; in series [1] (ethyl acetate, week 9, 25° C.), 2; in series [1] (ethyl acetate, week 16, 25° C.) it was 2. The crystalline form present in series [1] (nitromethane, week 1, 25° C.) stood at 3; in series [1] (nitromethane, week 2, 25° C.), 3; in series [1] (nitromethane, week 4, 25° C.), 3; in series [1] (nitromethane, week 9, 25° C.), 3; in series [1] (nitromethane, week 16, 25° C.) it was 2.
For the compound `CCCCN(CCCC)C(=O)CN1C[C@H](c2ccc3c(c2)OCO3)[C@@H](C(=O)O)[C@@H]1c1ccc(OC)cc1` [Form 3, (2R,3R,4S)-(+)-2-(4-methoxyphenyl)-4-(1,3-benzodioxol-5-yl)-1-(N,N-di(n-butyl)aminocarbonylmethyl)pyrrolidine-3-carboxylic acid], the solubility in series [2] amounted to 16.53 ± 0.22 mg/mL (≈ 32.4 mM).

For the origin of these results see patent US20060063825A1, “Crystalline form of a drug” (priority 2004, published 2006).
